In patent US20220047507A1, “MELFLUFEN DOSAGE REGIMENS FOR CANCER” (ONCOPEPTIDES AB, priority 2015, published 2022):
Values joined by “and” are separate entries in the source; they are usually repeats but may differ in a detail not shown here. Equal entries are not always repeated.

Columns and labels:
[1] = system: MM cell lines resistant to dexamethasone, bortezomib and melphalan; details: in vitro; cited from earlier work
[2] = system: relapsed-refractory multiple myeloma (RRMM) patients; experiment: Safety in patients with RRMM, Example 2a; type: in vivo, human; details: 40 mg
Protocol: (§1) Example 2: An open label single arm extension on the dose of 40 mg over 30 minutes of Example 1. Intravenous melflufen was administered over 30 minutes on Day 1 of a 21-day cycle or 28-day cycle (in combination with 40 mg dexamethasone (oral or intravenous) treatment on Days 1, 8 and 15) for at least 2 cycles, and up to the stated number of cycles. The cycle length was extended during the Example 2 Clinical Trial from 21 to 28 days per a protocol amendment to allow for a better recovery of neutrophils and thrombocytes before a new cycle is initiated.
(§2) Example 2a results are from a data cut-off of time point (a). Example 2b results are from a data cut-off of time point (bi) for the efficacy data, which was approximately 12 months after time point (a); and from a data cut-off of time point (bii) for the safety data, which was approximately 10 months after time point (a).
As mentioned above, by the data cut-off for Example 2a 38 patients had been dosed with 162 doses of melflufen hydrochloride 40 mg over 30 minutes. Median number of cycles was 3 (1-13) and median duration of treatment was 13 weeks (2-51 weeks). The dose intensity was 96% (77-100).

[3] = system: relapsed-refractory multiple myeloma (RRMM) patients; experiment: Efficacy in patients with RRMM, Example 2a; type: in vivo, human; details: Evaluable ≥ 1 cycle, n 35
[4] = system: relapsed-refractory multiple myeloma (RRMM) patients; experiment: Efficacy in patients with RRMM, Example 2b, time point (bi); type: in vivo, human
Protocol: as §1, §2
By the data cut-off point (bi), […] (the 40 mg dosage excludes the mass of the salt component) administered over 30 minutes every 3 weeks (21 days) in combination with weekly dexamethasone (day 1, 8 and 15) or every 4 weeks (28 days) in combination with weekly dexamethasone (day 1, 8, 15 and 22).
[…] 10 patients were not evaluable for efficacy evaluation due to rapid early progression (8), or early termination due to adverse events (2).

[5] = system: different human tumors, including MM; details: at seemingly comparable toxicity; cited from earlier work
[6] = Evaluable ≥ 2 cycles, n 30, listed as Melflufen
[7] = Pomalidomide refractory, Example 2b, efficacy evaluable N = 29
[8] = Pomalidomide refractory, Example 2b, treated patients N = 39
[9] = Triple refractory (2 PI/ImiD + 1 ImiD/PI), Example 2b, treated patients N = 39
[10] = refractory status Alkylator, Example 2b, treated patients N = 39
[11] = refractory status Cyclophosphamide, Example 2b, efficacy evaluable N = 29
[12] = refractory status Cyclophosphamide, Example 2b, treated patients N = 39
[13] = refractory status High dose melphalan, Example 2b, efficacy evaluable N = 29
[14] = refractory status High dose melphalan, Example 2b, treated patients N = 39
[15] = refractory status IMiD, Example 2b, treated patients N = 39
[16] = refractory status Low dose melphalan, Example 2b, efficacy evaluable N = 29
[17] = refractory status Low dose melphalan, Example 2b, treated patients N = 39
[18] = refractory status None, Example 2b, efficacy evaluable N = 29
[19] = refractory status None, Example 2b, treated patients N = 39
[20] = refractory status PI + IMiD + Alkylator, Example 2b, efficacy evaluable N = 29
[21] = refractory status PI + IMiD + Alkylator, Example 2b, treated patients N = 39
[22] = refractory status PI + IMiD, Example 2b, treated patients N = 39
[23] = refractory status PI, Example 2b, treated patients N = 39

## CCOC(=O)[C@H](Cc1ccc(F)cc1)NC(=O)[C@@H](N)Cc1ccc(N(CCCl)CCCl)cc1.Cl [melflufen, L-Melphalanyl-4-fluoro-L-phenylalanine ethyl ester]
[1]
  cytotoxic activities in resistant MM cell lines: concentrations similar to those observed in the parenteral, non-resistant cell lines
[2]; Example 2a
  Serious TEAE related to melflufen: Diarrhoea: (3) %
  Serious TEAE related to melflufen: Diarrhoea, number of patients: 1
  Serious TEAE related to melflufen: Escherichia coli sepsis: (3) %
  Serious TEAE related to melflufen: Escherichia coli sepsis, number of patients: 1
  Serious TEAE related to melflufen: Febrile Neutropenia: (5) %
  Serious TEAE related to melflufen: Febrile Neutropenia, number of patients: 2
  Serious TEAE related to melflufen: Neutropenia: (3) %
  Serious TEAE related to melflufen: Neutropenia, number of patients: 1
  Serious TEAE related to melflufen: Pneumonia: (8) %
  Serious TEAE related to melflufen: Pneumonia, number of patients: 3
  Serious TEAE related to melflufen: Pyrexia: (5) %
  Serious TEAE related to melflufen: Pyrexia, number of patients: 2
[2]; Example 2a N = 38
  Anemia, treatment related ≥grade 3: (40) %
  Any treatment-related grade 3 and/or grade 4, grade 4: (50) %
  Any treatment-related grade 3 and/or grade 4, ≥grade 3: 87%
  Asthenia, treatment related ≥grade 3: (5) %
  Blood and lymphatic system disorders, treatment related grade 4: (47) %
  Blood and lymphatic system disorders, treatment related ≥grade 3: (76) %
  Fatigue, treatment related ≥grade 3: (5) %
  Febrile neutropenia, treatment related ≥grade 3: (5) %
  General disorders and administration site conditions, treatment related ≥grade 3: (18) %
  Hyperglycemia, treatment related grade 4: (3) %
  Hyperglycemia, treatment related ≥grade 3: (8) %
  Infections and infestations, treatment related ≥grade 3: (8) %
  Investigations, treatment related ≥grade 3: (10) %
  Leukopenia, treatment related grade 4: (13) %
  Leukopenia, treatment related ≥grade 3: (34) %
  Metabolism and nutrition disorders, treatment related grade 4: (3) %
  Metabolism and nutrition disorders, treatment related ≥grade 3: (8) %
  Neutropenia, treatment related grade 4: (26) %
  Neutropenia, treatment related ≥grade 3: (53) %
  Neutrophil count decreased, treatment related ≥grade 3: (10) %
  Pneumonia, treatment related ≥grade 3: (8) %
  Pyrexia, treatment related ≥grade 3: (5) %
  Thrombocytopenia, treatment related grade 4: (34) %
  Thrombocytopenia, treatment related ≥grade 3: (68) %
[2]; Example 2a N = 38, listed as melflufen hydrochloride
  Any treatment-related grade 3 and/or grade 4, ≥grade 3: (87) %
[2]; Example 2a, 38 patients
  patients with Serious TEAEs: 34%
  patients with TEAEs leading to death: 8%
  patients with TEAEs leading to dose reduction of melflufen: 18%
  patients with grade 3 or 4 TEAEs: 90%
  patients with treatment-related Serious TEAEs: 21%
[3]
  Positive Response (PR), patients: 9
  Progressive Disease (PD), patients: 8
[4]; Antibody refractory, Example 2b, efficacy evaluable N = 29
  CRR (≥MR): (50)+ %
[4]; Antibody refractory, Example 2b, treated patients N = 39
  CRR (≥MR): (33) %
[4]; Evaluable ≥ 1 cycle, n 40
  Clinical Benefit Rate (CBR): 50%
  Minimal Response (MR), patients: 8
  Overall Response Rate (ORR): 30%
  Positive Response (PR), patients: 9
  Progressive Disease (PD), patients: 9
  Stable Disease (SD), patients: 11
  Very Good Positive Response (PR), patients: 3
[4]; Evaluable ≥ 2 cycles, n 30
  Clinical Benefit Rate (CBR): 56% and 63%
  Overall Response Rate (ORR): 41% and 40%
  Positive Response (PR), patients: 9
  Progressive Disease (PD), patients: 1
  Stable Disease (SD), patients: 10
[4]; Evaluable ≥ 2 cycles, n 30, 40 mg over 30 min + dexamethasone
  Very Good Positive Response (PR), patients: 2
[4]; Evaluable ≥ 2 cycles, n 30, 40 mg over 30 min + dexamethasone, listed as Melflufen
  Very Good Positive Response (PR), patients: 3
[4]; [6]
  Clinical Benefit Rate (CBR): 63%
  Minimal Response (MR), patients: 7
  Overall Response Rate (ORR): 40%
[4]; Example 2b, 11 events in 12 responding patients
  median duration of response (DOR): 7.7 months
[4]; Example 2b, ITT-population (n=40)
  median progression free survival (PFS): 4.3 months
[4]; Example 2b, PP-population (efficacy evaluable, n=30)
  median progression free survival (PFS): 7.9 months
[4]; Example 2b, efficacy evaluable population
  increase in PFS compared to pomalidomide+dexamethasone and carfilzomib: around 4 months
[4]; [7]
  CRR (≥MR): (55) %
  ORR (≥PR): (36) %
[4]; [8]
  CRR (≥MR): (44) %
  ORR (≥PR): (25) %
[4]; Triple refractory (2 PI/ImiD + 1 ImiD/PI), Example 2b, efficacy evaluable N = 29
  CRR (≥MR): (70) %
[4]; [9]
  CRR (≥MR): (44) %
  ORR (≥PR): (25) %
[4]; of 30 evaluable
  best response of minimal response (MR) or better, n patients: 15 and 19
  partial response (PR) or better, n patients: 12
[4]; of the 8 patients refractory to an alkylator as their last line of treatment
  best response of PR or better, n patients: 5
[4]; refractory status Alkylator, Example 2b, efficacy evaluable N = 29
  CRR (≥MR): (73) %
[4]; [10]
  CRR (≥MR): (55) %
  ORR (≥PR): (36) %
[4]; [11]
  CRR (≥MR): (80) %
  ORR (≥PR): (60) %
[4]; [12]
  CRR (≥MR): (53) %
  ORR (≥PR): (40) %
[4]; [13]
  CRR (≥MR): (100) %
  ORR (≥PR): (67) %
[4]; [14]
  CRR (≥MR): (100) %
  ORR (≥PR): (33) %
[4]; refractory status IMiD, Example 2b, efficacy evaluable N = 29
  CRR (≥MR): (63) %
[4]; [15]
  CRR (≥MR): (47) %
  ORR (≥PR): (28) %
[4]; [16]
  CRR (≥MR): (60) %
  ORR (≥PR): (40) %
[4]; [17]
  CRR (≥MR): (67) %
  ORR (≥PR): (33) %
[4]; [18]
  CRR (≥MR): (100) %
  ORR (≥PR): (100) %
[4]; [19]
  CRR (≥MR): (100) %
  ORR (≥PR): (100) %
[4]; [20]
  CRR (≥MR): (44) %
  ORR (≥PR): (33) %
[4]; [21]
  CRR (≥MR): (40) %
  ORR (≥PR): (20) %
[4]; refractory status PI + IMiD, Example 2b, efficacy evaluable N = 29
  CRR (≥MR): (59) %
[4]; [22]
  CRR (≥MR): (46) %
  ORR (≥PR): (25) %
[4]; refractory status PI, Example 2b, efficacy evaluable N = 29
  CRR (≥MR): (63) %
[4]; [23]
  CRR (≥MR): (50) %
  ORR (≥PR): (25) %
[5]
  antitumor activity over equimolar dosage of melphalan: superior antitumor activity
